# In ChEMBL document CHEMBL1139640, “Water soluble prodrug of a COX-2 selective inhibitor suitable for intravenous administration in models of cerebral ischemia” (Bioorg Med Chem Lett, 2005):
# Key:
# [1] = target: Prostaglandin G/H synthase 1 (Homo sapiens, UniProt P23219); assay: Inhibitory concentration against prostaglandin G/H synthase 1 in human whole blood; assay type: tissue-based
# [2] = target: T1, Prostaglandin G/H synthase 2 (Homo sapiens, UniProt P35354); assay: Inhibitory concentration against prostaglandin G/H synthase 2 in human whole blood
# T1 sequence (P35354 whole entry): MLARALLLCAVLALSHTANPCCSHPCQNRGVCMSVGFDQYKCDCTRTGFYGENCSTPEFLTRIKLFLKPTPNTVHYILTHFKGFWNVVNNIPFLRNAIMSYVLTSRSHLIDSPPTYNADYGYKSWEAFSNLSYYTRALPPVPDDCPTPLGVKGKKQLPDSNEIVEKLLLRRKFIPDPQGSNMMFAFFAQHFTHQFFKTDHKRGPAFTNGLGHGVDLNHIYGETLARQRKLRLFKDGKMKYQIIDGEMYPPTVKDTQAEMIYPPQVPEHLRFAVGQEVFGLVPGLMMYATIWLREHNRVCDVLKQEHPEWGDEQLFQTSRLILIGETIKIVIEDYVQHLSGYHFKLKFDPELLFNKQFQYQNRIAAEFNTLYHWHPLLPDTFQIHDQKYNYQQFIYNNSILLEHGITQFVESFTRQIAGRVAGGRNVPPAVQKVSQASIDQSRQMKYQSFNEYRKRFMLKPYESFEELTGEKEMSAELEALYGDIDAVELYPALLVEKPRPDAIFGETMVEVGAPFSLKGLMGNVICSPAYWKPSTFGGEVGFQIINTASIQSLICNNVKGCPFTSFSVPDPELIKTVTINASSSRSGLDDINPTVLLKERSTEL
# Rattus norvegicus [3] = assay: Plasma concentration of compound 1 in Sprague-Dawley rats upon 2 mg/kg iv dose of prodrug after 30 minutes; assay type: functional, organism-based; parameters: dose 2 mg/kg
# Rattus norvegicus [4] = assay: Ratio of concentration of compound 16 in brain to that of plasma of Sprague-Dawley rats upon 10 mg/kg bolus+ 5 mg/Kg/h infusion of compound after 24 hours; assay type: functional
# Rattus norvegicus [5] = assay: Ratio of concentration of compound 16 in brain to that of plasma of Sprague-Dawley rats upon 5 mg/kg bolus+ 3 mg/Kg/h infusion of compound after 24 hours; assay type: functional
# Rattus norvegicus [6] = assay: Concentration of compound 16 in brain of Sprague-Dawley rats upon 5 mg/kg bolus+ 3 mg/Kg/h infusion of compound after 24 hours; assay type: functional, organism-based
# Rattus norvegicus [7] = assay: Concentration of compound 16 in plasma of Sprague-Dawley rats upon 5 mg/kg bolus+ 3 mg/Kg/h infusion of compound after 6 hours; assay type: functional, organism-based
# Rattus norvegicus [8] = assay: Concentration of compound 16 in plasma of Sprague-Dawley rats upon 10 mg/kg bolus+ 5 mg/Kg/h infusion of compound after 24 hours; assay type: functional, organism-based
# Rattus norvegicus [9] = assay: Concentration of compound 16 in plasma of Sprague-Dawley rats upon 5 mg/kg bolus+ 3 mg/Kg/h infusion of compound after 24 hours; assay type: functional, organism-based
# Rattus norvegicus [10] = assay: Concentration of compound 16 in plasma of Sprague-Dawley rats upon 10 mg/kg bolus+ 5 mg/Kg/h infusion of compound after 6 hours; assay type: functional, organism-based
# Rattus norvegicus [11] = assay: Concentration of compound 16 in brain of Sprague-Dawley rats upon 10 mg/kg bolus+ 5 mg/Kg/h infusion of compound after 24 hours; assay type: functional, organism-based
# Rattus norvegicus [12] = assay: Concentration of compound 1 in plasma of Sprague-Dawley rats upon 10 mg/kg iv dose after 3 hours; assay type: functional, organism-based; parameters: dose 10 mg/kg
# Rattus norvegicus [13] = assay: Concentration of compound 1 in brain of Sprague-Dawley rats upon 10 mg/kg iv dose after 3 hours; assay type: functional, organism-based; parameters: dose 10 mg/kg
# Chain of Prostaglandin G/H synthase 1 (P23219 whole entry): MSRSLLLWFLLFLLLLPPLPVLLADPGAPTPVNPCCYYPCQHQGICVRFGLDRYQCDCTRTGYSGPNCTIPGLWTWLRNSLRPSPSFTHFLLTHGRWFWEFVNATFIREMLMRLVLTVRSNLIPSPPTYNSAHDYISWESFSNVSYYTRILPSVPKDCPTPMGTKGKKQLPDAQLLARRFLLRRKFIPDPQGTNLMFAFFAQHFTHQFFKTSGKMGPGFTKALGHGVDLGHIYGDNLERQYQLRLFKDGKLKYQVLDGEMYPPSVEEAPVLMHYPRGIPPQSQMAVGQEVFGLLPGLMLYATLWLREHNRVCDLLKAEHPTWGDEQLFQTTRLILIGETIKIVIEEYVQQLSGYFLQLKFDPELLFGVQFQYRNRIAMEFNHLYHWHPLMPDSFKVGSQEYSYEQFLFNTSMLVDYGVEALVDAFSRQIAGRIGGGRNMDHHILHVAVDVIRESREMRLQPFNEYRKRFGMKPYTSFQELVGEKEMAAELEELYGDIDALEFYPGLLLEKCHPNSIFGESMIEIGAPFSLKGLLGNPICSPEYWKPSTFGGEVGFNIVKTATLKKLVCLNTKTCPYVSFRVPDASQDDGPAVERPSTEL
compound,measurement,setting,value
CS(=O)(=O)c1ccc(C2=C(c3cccc(F)c3)C(=O)OC2)cc1,IC50,[1],65 µM
same,IC50,[2],1.3 µM
CCOC(=O)[C@H](N)COC(=O)/C(=C(\COC(C)=O)c1ccc(S(C)(=O)=O)cc1)c1ccc(F)c(F)c1,Concentration,Rattus norvegicus [3],1.4 µM
CC(=O)OC/C(=C(\C(=O)OCC[N+](C)(C)C)c1cccc(F)c1)c1ccc(S(C)(=O)=O)cc1.[Br-],Ratio,Rattus norvegicus [4],55%
same,Ratio,Rattus norvegicus [5],59%
same,Concentration,Rattus norvegicus [6],5.5 µM
same,Concentration,Rattus norvegicus [7],6 µM
same,Concentration,Rattus norvegicus [8],20 µM
same,Concentration,Rattus norvegicus [9],9.2 µM
same,Concentration,Rattus norvegicus [10],16 µM
same,Concentration,Rattus norvegicus [11],11 µM
CCOC(=O)/C(=C(\COC(=O)[C@@H](N)CCCCN)c1ccc(S(C)(=O)=O)cc1)c1ccc(F)c(F)c1,Concentration,Rattus norvegicus [3],0.4 µM
CC(=O)OC/C(=C(\C(=O)OCC[N+](C)(C)C)c1ccc(F)c(F)c1)c1ccc(S(C)(=O)=O)cc1,Concentration,Rattus norvegicus [12],1.4 µM
same,Concentration,Rattus norvegicus [3],0.9 µM
same,Concentration,Rattus norvegicus [13],0.7 µM
